Assay [1] has as its system 229E human corona virus (hCoV). The assay is described as follows: 229E live virus assay (CPE, ATPlite readout, MRC-5 cells). To be noted: Human coronavirus 229E, MRC5, 144 h, read-out: 229E EC50. The class given is cell-based, hCoV-229E.
The next assay concerns the target SARS-CoV-2 3CL-protease (Severe acute respiratory syndrome coronavirus 2, UniProt P0DTD1). The experiment in a line: SARS-CoV-2 3C-like (3CL) protease fluorescence assay (FRET). The format is biochemical. Particulars: recombinant SARS-CoV-2 3CL-protease 10 nM, 30 min preincubation at RT, duplicate; read-out: FRET IC50.
[2] abbreviates: MRC-5 cells, MOI 0.05, 6 days at 34° C., ATPlite, duplicate.

Like-named read-outs stand apart in the source and are kept apart here.

For `CC(C(=O)N(C)c1ccccc1)C(=O)N1C[C@]2(C[C@H]1C#N)C(=O)Nc1ccccc12` (some centres unmarked) [Example 16], the EC50 in assay [1] (setting [2]) was in the range of 100 to 1000 nM. Also, the IC50 on SARS-CoV-2 3CL-protease was greater than 1000 nM.

In the case of `CC(C(=O)Nc1cc(F)cc(F)c1)C(=O)N1C[C@]2(C[C@H]1C#N)C(=O)Nc1ccccc12` (some centres unmarked) [Example 17], the EC50 in assay [1] (setting [2]) was greater than 1000 nM. Further, the IC50 on SARS-CoV-2 3CL-protease is greater than 1000 nM.

Consider `CC(C)CC(F)(C(=O)Nc1ccccc1)C(=O)N1C[C@]2(C[C@H]1C#N)C(=O)Nc1ccccc12` (some centres unmarked) [Example 18], for which the EC50 in assay [1] (setting [2]) is greater than 1000 nM. Further, the IC50 on SARS-CoV-2 3CL-protease is greater than 1000 nM.

On to `CC(C)CC(F)(C(=O)N(C)c1ccccc1)C(=O)N1C[C@]2(C[C@H]1C#N)C(=O)Nc1ccccc12` (some centres unmarked) [Example 19], for which, in assay [1] (setting [2]), the EC50 is greater than 1000 nM. The IC50 on SARS-CoV-2 3CL-protease was greater than 1000 nM.

Take `CC(C)CC(F)(C(=O)Nc1cc(F)cc(F)c1)C(=O)N1C[C@]2(C[C@H]1C#N)C(=O)Nc1ccccc12` (some centres unmarked) [Example 20]: the EC50 in assay [1] (setting [2]) was greater than 1000 nM. The IC50 at SARS-CoV-2 3CL-protease is greater than 1000 nM.

For the compound `N#C[C@@H]1C[C@@]2(CN1C(=O)C(Cc1ccccc1)C(=O)Nc1ccccc1)C(=O)Nc1ccccc12` (some centres unmarked) [Example 21], in assay [1] (setting [2]), the EC50 was greater than 1000 nM. For the same compound, the IC50 on SARS-CoV-2 3CL-protease was 100 to 1000 nM.

Turning to `CN(C(=O)C(Cc1ccccc1)C(=O)N1C[C@]2(C[C@H]1C#N)C(=O)Nc1ccccc12)c1ccccc1` (some centres unmarked) [Example 22], the EC50 in assay [1] (setting [2]) was greater than 1000 nM. Also, the IC50 at SARS-CoV-2 3CL-protease was greater than 1000 nM.

As to `N#C[C@@H]1C[C@@]2(CN1C(=O)C(Cc1ccccc1)C(=O)Nc1cc(F)cc(F)c1)C(=O)Nc1ccccc12` (some centres unmarked) [Example 23], the half-maximal effective concentration (EC50) in assay [1] (setting [2]) is greater than 1000 nM. Further, the IC50 on SARS-CoV-2 3CL-protease is 100 to 1000 nM.

Take `N#C[C@@H]1C[C@@]2(CN1C(=O)C(Cc1ccccc1)C(=O)Nc1ccc3ccccc3c1)C(=O)Nc1ccccc12` (some centres unmarked) [Example 24]: the EC50 in assay [1] (setting [2]) is greater than 1000 nM. Moreover, at SARS-CoV-2 3CL-protease, the IC50 fell in the range of 100 to 1000 nM.

Turning to `N#C[C@@H]1C[C@@]2(CN1C(=O)[C@@H](Cc1ccccc1)C(=O)Nc1cc(F)cc(F)c1)C(=O)Nc1ccccc12` [Example 25], in assay [1] (setting [2]), the EC50 was greater than 1000 nM. The IC50 at SARS-CoV-2 3CL-protease was in the range of 100 to 1000 nM.

In the case of `N#C[C@@H]1C[C@@]2(CN1C(=O)[C@H](Cc1ccccc1)C(=O)Nc1cc(F)cc(F)c1)C(=O)Nc1ccccc12` [Example 26], the EC50 in assay [1] (setting [2]) is greater than 1000 nM. Further, at SARS-CoV-2 3CL-protease, the concentration for half-maximal inhibition (IC50) is greater than 1000 nM.

Take `N#C[C@@H]1C[C@@]2(CN1C(=O)C(F)(Cc1ccccc1)C(=O)Nc1ccccc1)C(=O)Nc1ccccc12` (some centres unmarked) [Example 27]: the EC50 in assay [1] (setting [2]) is greater than 1000 nM. In addition, on SARS-CoV-2 3CL-protease, the IC50 was greater than 1000 nM.

On to `N#C[C@@H]1C[C@@]2(CN1C(=O)C(F)(Cc1ccccc1)C(=O)Nc1cc(F)cc(F)c1)C(=O)Nc1ccccc12` (some centres unmarked) [Example 28], for which the EC50 in assay [1] (setting [2]) was greater than 1000 nM. The IC50 on SARS-CoV-2 3CL-protease was greater than 1000 nM.

Consider `CC(=O)N1C[C@]2(C[C@H]1C#N)C(=O)Nc1ccccc12` [Example 29], for which, in assay [1] (setting [2]), the EC50 is 100 to 1000 nM. The IC50 on SARS-CoV-2 3CL-protease was greater than 1000 nM.

Turning to `N#C[C@@H]1C[C@@]2(CN1C(=O)c1ccccc1)C(=O)Nc1ccccc12` [Example 30], the EC50 in assay [1] (setting [2]) was 100 to 1000 nM. Besides, the IC50 on SARS-CoV-2 3CL-protease is greater than 1000 nM.

With `CC(C)CC(C(=O)N1C[C@]2(C[C@H]1C#N)C(=O)Nc1ccccc12)c1ccc(NC(=O)c2cc3c(F)cccc3[nH]2)cn1` (some centres unmarked) [Example 31], the EC50 in assay [1] (setting [2]) is greater than 1000 nM. Further, the IC50 at SARS-CoV-2 3CL-protease was greater than 1000 nM.

Take `Cc1ccc(S(=O)(=O)N2C[C@]3(C[C@H]2C#N)C(=O)Nc2ccccc23)cc1` [Example 32]: the EC50 in assay [1] was greater than 1000 nM. Further, the IC50 on SARS-CoV-2 3CL-protease is greater than 1000 nM.

Consider `N#C[C@@H]1C[C@@]2(CN1S(=O)(=O)c1ncc(-c3ccc(F)cc3)s1)C(=O)Nc1ccccc12` [Example 33], for which, in assay [1] (setting [2]), the EC50 is greater than 1000 nM. In addition, on SARS-CoV-2 3CL-protease, the 50% inhibitory concentration (IC50) is greater than 1000 nM.

As to `Cc1nc(-c2ccc(S(=O)(=O)N3C[C@]4(C[C@H]3C#N)C(=O)Nc3ccccc34)s2)cs1` [Example 34], the EC50 in assay [1] (setting [2]) was greater than 1000 nM. On SARS-CoV-2 3CL-protease, the IC50 is greater than 1000 nM.

With `N#C[C@@H]1C[C@@]2(CN1S(=O)(=O)c1ccc(Oc3ccccc3)cc1)C(=O)Nc1ccccc12` [Example 35], the EC50 in assay [1] (setting [2]) was greater than 1000 nM. Moreover, on SARS-CoV-2 3CL-protease, the IC50 was greater than 1000 nM.

`N#C[C@@H]1C[C@@]2(CN1C(=O)c1ccc(-c3ccccc3)cc1)C(=O)Nc1ccccc12` [Example 36]: the EC50 in assay [1] (setting [2]) is greater than 1000 nM. Further, the IC50 at SARS-CoV-2 3CL-protease was greater than 1000 nM.

`N#C[C@@H]1C[C@@]2(CN1C(=O)c1cc3ccccc3nc1Cl)C(=O)Nc1ccccc12` [Example 37]: the EC50 in assay [1] (setting [2]) is greater than 1000 nM. Besides, on SARS-CoV-2 3CL-protease, the IC50 was greater than 1000 nM.

With `N#C[C@@H]1C[C@@]2(CN1C(=O)NC1CCCCC1)C(=O)Nc1ccccc12` [Example 38], the EC50 in assay [1] (setting [2]) is less than 100 nM. Further, the 50% inhibitory concentration (IC50) on SARS-CoV-2 3CL-protease is greater than 1000 nM.

With `N#C[C@@H]1C[C@@]2(CN1CC1CCCCC1)C(=O)Nc1ccccc12` [Example 39], in assay [1] (setting [2]), the EC50 is greater than 1000 nM. Also, the IC50 on SARS-CoV-2 3CL-protease was greater than 1000 nM.

For the compound `CC(C)C(=O)N1C[C@]2(C[C@H]1C#N)C(=O)Nc1ccccc12` [Example 40], the EC50 in assay [1] (setting [2]) is greater than 1000 nM. Also, the IC50 at SARS-CoV-2 3CL-protease is greater than 1000 nM.

For `CC(C)(C)C(=O)N1C[C@]2(C[C@H]1C#N)C(=O)Nc1ccccc12` [Example 41], the EC50 in assay [1] (setting [2]) was greater than 1000 nM. For the same compound, at SARS-CoV-2 3CL-protease, the IC50 was greater than 1000 nM.

In the case of `N#C[C@@H]1C[C@@]2(CN1C(=O)C1CC1)C(=O)Nc1ccccc12` [Example 42], the EC50 in assay [1] (setting [2]) is greater than 1000 nM. Also, at SARS-CoV-2 3CL-protease, the IC50 is greater than 1000 nM.

For the compound `N#C[C@@H]1C[C@@]2(CN1C(=O)C1CCCCC1)C(=O)Nc1ccccc12` [Example 43], in assay [1] (setting [2]), the EC50 is greater than 1000 nM. Further, the IC50 at SARS-CoV-2 3CL-protease was greater than 1000 nM.

For the compound `N#C[C@@H]1C[C@@]2(CN1C(=O)c1ccc3cccnc3c1)C(=O)Nc1ccccc12` [Example 44], the EC50 in assay [1] (setting [2]) was greater than 1000 nM. Also, the IC50 at SARS-CoV-2 3CL-protease is greater than 1000 nM.

On to `CCNC(=O)N1C[C@]2(C[C@H]1C#N)C(=O)Nc1ccccc12` [Example 46], for which the EC50 in assay [1] (setting [2]) is greater than 1000 nM. The IC50 at SARS-CoV-2 3CL-protease was greater than 1000 nM.

Take `CC(C)NC(=O)N1C[C@]2(C[C@H]1C#N)C(=O)Nc1ccccc12` [Example 47]: the EC50 in assay [1] (setting [2]) was greater than 1000 nM. In addition, the IC50 at SARS-CoV-2 3CL-protease was greater than 1000 nM.

`N#C[C@@H]1C[C@@]2(CN1C(=O)NC1CC1)C(=O)Nc1ccccc12` [Example 48]: the EC50 in assay [1] was greater than 1000 nM. Moreover, the IC50 on SARS-CoV-2 3CL-protease is greater than 1000 nM.

On to `N#C[C@@H]1C[C@@]2(CN1C(=O)NC1CCCC1)C(=O)Nc1ccccc12` [Example 49], for which the EC50 in assay [1] (setting [2]) was 100 to 1000 nM. Also, on SARS-CoV-2 3CL-protease, the IC50 is greater than 1000 nM.

For `N#C[C@@H]1C[C@@]2(CN1C(=O)Nc1ccccc1)C(=O)Nc1ccccc12` [Example 50], the EC50 in assay [1] (setting [2]) is greater than 1000 nM. For the same compound, at SARS-CoV-2 3CL-protease, the IC50 was greater than 1000 nM.

For the compound `N#C[C@@H]1C[C@@]2(CN1C(=O)NCc1ccccc1)C(=O)Nc1ccccc12` [Example 51], the 50% effective concentration (EC50) in assay [1] (setting [2]) fell in the range of 100 to 1000 nM. The IC50 at SARS-CoV-2 3CL-protease is greater than 1000 nM.

Consider `N#C[C@@H]1C[C@@]2(CN1C(=O)Nc1ccc3cccnc3c1)C(=O)Nc1ccccc12` [Example 52], for which, in assay [1] (setting [2]), the EC50 was greater than 1000 nM. In addition, the IC50 at SARS-CoV-2 3CL-protease is greater than 1000 nM.

For the compound `N#C[C@@H]1C[C@@]2(CN1C(=O)NCc1nccs1)C(=O)Nc1ccccc12` [Example 53], in assay [1] (setting [2]), the EC50 was greater than 1000 nM. Besides, the IC50 at SARS-CoV-2 3CL-protease was greater than 1000 nM.

Values taken from patent US20230159546A1, “NOVEL SPIROPYRROLIDINE DERIVED ANTIVIRAL AGENTS” (Enanta Pharmaceuticals, Inc., priority 2021, published 2023).
